# According to ChEMBL document CHEMBL1149794, “3D-QSAR and docking studies of aminopyridine carboxamide inhibitors of c-Jun N-terminal kinase-1” (Eur J Med Chem, 2008):
# Biological target: Mitogen-activated protein kinase 8 (Homo sapiens, UniProt P45983)
# Assay: Inhibition of JNK1
# Chain of Mitogen-activated protein kinase 8 (P45983 whole entry): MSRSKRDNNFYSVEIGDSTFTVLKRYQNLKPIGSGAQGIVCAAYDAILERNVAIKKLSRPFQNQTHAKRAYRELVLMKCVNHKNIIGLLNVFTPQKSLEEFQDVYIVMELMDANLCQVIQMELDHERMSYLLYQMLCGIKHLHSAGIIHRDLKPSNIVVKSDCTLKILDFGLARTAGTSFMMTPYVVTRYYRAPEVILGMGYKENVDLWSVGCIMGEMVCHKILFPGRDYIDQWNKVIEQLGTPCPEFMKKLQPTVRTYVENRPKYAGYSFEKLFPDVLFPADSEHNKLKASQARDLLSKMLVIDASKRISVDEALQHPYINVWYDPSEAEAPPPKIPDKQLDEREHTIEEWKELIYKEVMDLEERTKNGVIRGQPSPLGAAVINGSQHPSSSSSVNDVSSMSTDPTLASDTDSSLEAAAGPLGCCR
row,IC50,Compound
1,1500 nM,CC(C)[C@H](CO)Nc1nc(C(=O)NCc2ccc(S(C)(=O)=O)cc2)cc(N)c1C#N
2,180 nM,C[C@@H](CO)Nc1nc(C(=O)NCc2ccc(S(C)(=O)=O)cc2)cc(N)c1C#N
3,22 nM,C[C@@H](CO)Oc1nc(C(=O)NCc2ccc(S(C)(=O)=O)cc2)cc(N)c1C#N
4,1640 nM,CS(=O)(=O)c1ccc(CNC(=O)c2cc(N)c(C#N)c(OCCC(=O)O)n2)cc1
